# Literature values, collected in patent US11992485B2, “Analgesic formulations and methods for reduced postoperative nausea and vomiting and enhanced postoperative pain relief” (Hutchison Health, LLC, priority 2013, dated 2024).
# Where a name gives a salt, the structure may show the parent alone.
# Assays:
# [1] = test system: Lumbar Laminectomy patients
# [2] = Table 2: 12 hr., Rahmanian et al.
compound,measurement,setting,value
CCCCN1CCCCC1C(=O)Nc1c(C)cccc1C (stereo not drawn) [Bupivacaine Hydrochloride],decrease of postoperative surgical pain compared with 30 ml Normal Saline,"[1]; 30 mL of 0.25%, infiltrative field block at surgical closure, Rahmanian",no more effective than 30 ml Normal Saline
same,Patients with MILD PAIN,[1]; [2],0%
same,Patients with NO PAIN,[1]; [2],0%
same,VAS scores at rest compared with control Normal Saline group,"[1]; subjective linear VAS, Rahmanian",higher
same,% of patients with NO PONV,"50 patients; Table 1: first 24-48 hours post-surgery, Patel et al.",72%
same,patients who developed PONV,"50 patients; intrathecal, Patel",28%
